In US9725445B2, “Cycloalkyl nitrile pyrazolo pyridones as Janus kinase inhibitors” (Merck Sharp & Dohme Corp., priority 2013, dated 2017):

Assays:
JAK2 = JAK2 (Homo sapiens (Human), UniProt O60674); assay: Jak biochemical HTRF assay, JAK2; details: HTRF biochemical assay, recombinant GST-tagged catalytic domain; read-out: JAK2 IC50
JAK1 = JAK1 (Homo sapiens (Human), UniProt P23458); assay: Jak biochemical HTRF assay, JAK1; details: HTRF biochemical assay, recombinant GST-tagged catalytic domain; read-out: JAK1 IC50
Chain of JAK1 (P23458 875-1153): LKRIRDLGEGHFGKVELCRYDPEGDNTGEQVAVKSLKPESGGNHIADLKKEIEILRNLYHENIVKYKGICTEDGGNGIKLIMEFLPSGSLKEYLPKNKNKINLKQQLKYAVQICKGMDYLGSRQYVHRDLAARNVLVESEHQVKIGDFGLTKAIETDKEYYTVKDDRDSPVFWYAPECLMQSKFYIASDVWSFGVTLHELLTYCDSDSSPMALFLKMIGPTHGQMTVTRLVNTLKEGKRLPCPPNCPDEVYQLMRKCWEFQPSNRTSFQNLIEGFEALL

Chain of JAK2 (O60674 849-1124): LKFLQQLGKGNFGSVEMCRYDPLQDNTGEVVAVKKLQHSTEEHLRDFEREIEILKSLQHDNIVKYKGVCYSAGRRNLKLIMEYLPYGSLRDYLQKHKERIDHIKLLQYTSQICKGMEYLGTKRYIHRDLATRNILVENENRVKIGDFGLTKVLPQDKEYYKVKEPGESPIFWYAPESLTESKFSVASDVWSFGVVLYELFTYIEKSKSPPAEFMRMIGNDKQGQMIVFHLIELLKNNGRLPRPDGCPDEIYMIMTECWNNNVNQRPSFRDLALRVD

Compound | IC50 (JAK2) [nM] | IC50 (JAK1) [nM]
CC(C)(C)NS(=O)(=O)c1ccc(Nc2nn([C@H]3CCC[C@@H]3C#N)c3cc[nH]c(=O)c23)cc1 [Example 3-107, N-tert-butyl-4-({1-[(1S,2S)-2-cyanocyclopentyl]-4-oxo-4,5-dihydro-1H-pyrazolo[4,3-c]pyridin-3-yl}amino)benzenesulfonamide] | 0.48 | 0.22
CCN1Cc2ccc(Nc3nn([C@H]4CCCC[C@@H]4C#N)c4cc[nH]c(=O)c34)cc2C1 [Example 3-76, (1S,2S)-2-{3-[(2-ethyl-2,3-dihydro-1H-isoindol-5-yl)amino]-4-oxo-4,5-dihydro-1H-pyrazolo[4,3-c]pyridin-1-yl}cyclohexanecarbonitrile] | 2.1 | 0.41
N#C[C@H]1CCCC[C@@H]1n1nc(Nc2ccc(-c3cnco3)cc2)c2c(=O)[nH]ccc21 [Example 15-8, (1S,2S)-2-(3-{[4-(1,3-oxazol-5-yl)phenyl]amino}-4-oxo-4,5-dihydro-1H-pyrazolo[4,3-c]pyridin-1-yl)cyclohexanecarbonitrile] | 0.27 | 0.14
COCC(C)(C)N1Cc2cc(Nc3nn([C@H]4CCCC[C@@H]4C#N)c4cc[nH]c(=O)c34)ccc2S1(=O)=O [Example 3-160, (1S,2S)-2-(3-{[2-(2-methoxy-1,1-dimethylethyl)-1,1-dioxido-2,3-dihydro-1,2-benzisothiazol-5-yl]amino}-4-oxo-4,5-dihydro-1H-pyrazolo[4,3-c]pyridin-1-yl)cyclohexanecarbonitrile] | 0.19 | 0.049
N#C[C@H]1CCCC[C@@H]1n1nc(Nc2ccc(-c3ncco3)cc2)c2c(=O)[nH]ccc21 [Example 15-1, (1S,2S)-2-(3-{[4-(1,3-Oxazol-2-yl)phenyl]amino}-4-oxo-4,5-dihydro-1H-pyrazolo[4,3-c]pyridin-1-yl)cyclohexanecarbonitrile] | 1.9 | 0.13
N#C[C@H]1CCCC[C@@H]1n1nc(Nc2cccc(Cn3cncn3)c2)c2c(=O)[nH]ccc21 [Example 3-50, (1S,2S)-2-(4-oxo-3-{[3-(1H-1,2,4-triazol-1-ylmethyl)phenyl]amino}-4,5-dihydro-1H-pyrazolo[4,3-c]pyridin-1-yl)cyclohexanecarbonitrile] | 1.3 | 0.5
CN(C(C)(C)C)S(=O)(=O)c1ccc(Nc2nn([C@H]3CCCC[C@@H]3C#N)c3cc[nH]c(=O)c23)cc1 [Example 3-142, N-tert-butyl-4-({1-[(1S,2S)-2-cyanocyclohexyl]-4-oxo-4,5-dihydro-1H-pyrazolo[4,3-c]pyridin-3-yl}amino)-N-methylbenzenesulfonamide] | 0.68 | 0.29
N#C[C@H]1CCCC[C@@H]1n1nc(Nc2ccc(C(O)C(F)(F)F)cc2)c2c(=O)[nH]ccc21 (single isomer, unassigned) [Example 3-8] | 0.82 | 0.13
CN(C)[C@H]1CC[C@H](n2nc(Nc3ccc(OC(F)(F)F)cc3)c3c(=O)[nH]ccc32)[C@@H](C#N)C1 [Example 5-26, (1S,2S,5S)-5-(dimethylamino)-2-(4-oxo-3-((4-(trifluoromethoxy)phenyl)amino)-4,5-dihydro-1H-pyrazolo[4,3-c]pyridin-1-yl)cyclohexanecarbonitrile] | 7 | 0.33
N#C[C@H]1CCCC[C@@H]1n1nc(Nc2ccc(Cn3nccn3)cc2)c2c(=O)[nH]ccc21 [Example 3-45, (1S,2S)-2-(4-oxo-3-{[4-(2H-1,2,3-triazol-2-ylmethyl)phenyl]amino}-4,5-dihydro-1H-pyrazolo[4,3-c]pyridin-1-yl)cyclohexanecarbonitrile] | 0.42 | 0.37
CC(C)(c1ccc(Nc2nn([C@H]3CCCC[C@@H]3C#N)c3cc[nH]c(=O)c23)cc1)n1ccnn1 [Example 3-147, (1S,2S)-2-[3-({4-[1-methyl-1-(1H-1,2,3-triazol-1-yl)ethyl]phenyl}amino)-4-oxo-4,5-dihydro-1H-pyrazolo[4,3-c]pyridin-1-yl]cyclohexanecarbonitrile] | 0.5 | 0.17
N#C[C@H]1CCCC[C@@H]1n1nc(Nc2cccc(Cn3ccnc3)c2)c2c(=O)[nH]ccc21 [Example 3-47, (1S,2S)-2-(3-{[3-(1H-imidazol-1-ylmethyl)phenyl]amino}-4-oxo-4,5-dihydro-1H-pyrazolo[4,3-c]pyridin-1-yl)cyclohexanecarbonitrile] | 2.2 | 0.78
N#C[C@H]1CCCC[C@@H]1n1nc(Nc2ccc3c(c2)CN(CCO)S3(=O)=O)c2c(=O)[nH]ccc21 [Example 3-80, (1S,2S)-2-(3-{[2-(2-hydroxyethyl)-1,1-dioxido-2,3-dihydro-1,2-benzisothiazol-5-yl]amino}-4-oxo-4,5-dihydro-1H-pyrazolo[4,3-c]pyridin-1-yl)cyclohexanecarbonitrile] | 0.92 | 0.079
Cc1cc(Nc2nn([C@@H]3CCCCC[C@H]3C#N)c3cc[nH]c(=O)c23)ccc1C(O)C(F)(F)F (single isomer, unassigned) [Example 15-68, (1R,2R or 1S,2S)-2-[3-({3-methyl-4-[(1R or 1S)-2,2,2-trifluoro-1-hydroxyethyl]phenyl}amino)-4-oxo-4,5-dihydro-1H-pyrazolo[4,3-c]pyridin-1-yl]cycloheptanecarbonitrile] | 1.2 | 0.26
CCNC(c1ccc(Nc2nn([C@H]3CCC[C@@H]3C#N)c3cc[nH]c(=O)c23)cc1)C(F)(F)F (single isomer, unassigned) [Example 3-114, (1S,2S)-2-[3-({4-[(1S or 1R)-1-(ethylamino)-2,2,2-trifluoroethyl]phenyl}amino)-4-oxo-4,5-dihydro-1H-pyrazolo[4,3-c]pyridin-1-yl]cyclopentanecarbonitrile] | 0.28 | 0.19
N#C[C@H]1CCCC[C@@H]1n1nc(Nc2ccc3c(c2)CN(C2CCOCC2)C3=O)c2c(=O)[nH]ccc21 [Example 15-59, (1S,2S)-2-(4-oxo-3-{[1-oxo-2-(tetrahydro-2H-pyran-4-yl)-2,3-dihydro-1H-isoindol-5-yl]amino}-4,5-dihydro-1H-pyrazolo[4,3-c]pyridin-1-yl)cyclohexanecarbonitrile] | 0.41 | 0.078
C[C@H](NC1CCC(n2nc(Nc3ccc(Cl)cc3)c3c(=O)[nH]ccc32)C(C#N)C1)C1CC1 (stereo in doubt) [Example 4-2, (1S,2S,5R)-2-(3-((4-Chlorophenyl)amino)-4-oxo-4,5-dihydro-1H-pyrazolo[4,3-c]pyridin-1-yl)-5-(((S)-1-cyclopropylethyl)amino)cyclohexanecarbonitrile] | > 1500 | 84
N#C[C@H]1CCCC[C@@H]1n1nc(Nc2ccc3c(c2)CN(C2CCSCC2)C3=O)c2c(=O)[nH]ccc21 [Example 15-60, (1S,2S)-2-(4-oxo-3-{[1-oxo-2-(tetrahydro-2H-thiopyran-4-yl)-2,3-dihydro-1H-isoindol-5-yl]amino}-4,5-dihydro-1H-pyrazolo[4,3-c]pyridin-1-yl)cyclohexanecarbonitrile] | 0.51 | 0.11
Cc1cc(Nc2nn([C@@H]3CCCCC[C@H]3C#N)c3cc[nH]c(=O)c23)ccc1C(=O)N1CCCC1 (single isomer, unassigned) [Example 15-45, (1R,2R or 1S,2S)-2-(3-{[3-methyl-4-(pyrrolidin-1-ylcarbonyl)phenyl]amino}-4-oxo-4,5-dihydro-1H-pyrazolo[4,3-c]pyridin-1-yl)cycloheptanecarbonitrile] | 0.41 | 0.43
